Measured values reported in patent US6635475B1, “Bacillus subtilis extracytoplasmic function σ factor” (Cornell Research Foundation, Inc., priority 1999, dated 2003).
Where a SMILES comes first, the peptide text is derived from it. Bridges are numbered along the chain shown (N, C = ends). [ ]: non-standard residue; d: D form. The star is where a group is joined. Ileψ(thiazoline)Cys = CC[C@H](C)[C@H](N)C1=N[C@H](C(=O)*)CS1; dOrn = NCCC[C@@H](N)C(=O)O

System: sigW mutant
Assay: sigW mutant tested for increased sensitivity to chemical insults (zones of inhibition)
Assay type: cell-based, Bacillus subtilis
Details: sigW mutant strain tested for increased sensitivity to a variety of chemical insults
Source text: Identification of members of the σ^W regulon allows prediction of the phenotypes likely to be associated with a sigW mutation. A sigW mutant strain is not grossly defective in any of the well-characterized processes associated with post-exponential phase, including sporulation, competence, and protein secretion. It has been previously reported that sigW transcription is not induced by a temperature shift from 37 to 50 degrees C. (Huang et al., 1998) and the same is true for the four tested members of the σ^W regulon (ydbS, yeaA, yxjI, ysdB). Since several members of the σ^W regulon encode enzymes with a predicted detoxification function (FIG. 3), a sigW mutant was tested for increased sensitivity to a variety of chemical insults.

Compound | differences in the zones of inhibition
OCCS [2-mercaptoethanol] | no differences
[Mn+2] [Mn^2+] | no differences
[Fe+3] [Fe^3+] | no differences
O=C(N[C@H](CO)[C@H](O)c1ccc([N+](=O)[O-])cc1)C(Cl)Cl [chloramphenicol] | no differences
CCCCCCCCCCCCOS(=O)(=O)[O-].[Na+] [sodium dodecyl sulfate] | no differences
O=C(O)CN(CCN(CC(=O)O)CC(=O)O)CC(=O)O [EDTA] | no differences
CN[C@@H]1[C@H](O)[C@H](NC)[C@H]2O[C@@]3(O)C(=O)C[C@@H](C)O[C@H]3O[C@@H]2[C@H]1O [spectinomycin] | no differences
lysozyme | no differences
OO [hydrogen peroxide] | no differences
CC1(C)S[C@@H]2[C@H](NC(=O)[C@H](N)c3ccccc3)C(=O)N2[C@H]1C(=O)O [ampicillin] | no differences
polymyxins | no differences
[Cl-].[Na+] [NaCl] | no differences
neomycin | no differences
C[n+]1ccc(-c2cc[n+](C)cc2)cc1 [methyl viologen] | no differences
gentamicin sulfate | no differences
CC[C@H](C)[C@H](N)C1=N[C@H](C(=O)N[C@@H](CC(C)C)C(=O)N[C@H](CCC(=O)O)C(=O)N[C@H](C(=O)N[C@H]2CCCCNC(=O)[C@H](CC(N)=O)NC(=O)[C@@H](CC(=O)O)NC(=O)[C@H](Cc3cnc[nH]3)NC(=O)[C@@H](Cc3ccccc3)NC(=O)[C@H]([C@@H](C)CC)NC(=O)[C@@H](CCCN)NC2=O)[C@@H](C)CC)CS1 [bacitracin] ({Ileψ(thiazoline)Cys}-L[dE]IK[dOrn]I[dF]H[dD]N; lactam 4-C) | no differences
[Na+].[OH-] [NAOH] | no differences
nisin | no differences
O[C@H](CS)[C@H](O)CS (racemic) [dithiothreitol] | no differences
Cl [HCI] | no differences
